In patent US9302999B2, “Substituted triazoles as herbicides” (E. I. DU PONT DE NEMOURS AND COMPANY, priority 2012, dated 2016):

How the values were obtained:
Assay type in all cases: in vivo
[1] = test system: sedge, umbrella (small-flower umbrella sedge Cyperus difformis); experiment: Test B flooded paddy: sedge, umbrella; conditions: Flood, applied to paddy water at 2-leaf stage, visually evaluated after 13 to 15 days
Summary of the method: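 At two leaves, seedlings received the test compound via the paddy water, pots having been flooded 3 cm over the soil surface and kept so. Greenhouse-held for 13 to 15 days, then judged by eye against controls on a scale running 0 (no effect) to 100 (complete control).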

[2] = test system: velvetleaf (Abutilon theophrasti); experiment: Test A pre-/postemergence: velvetleaf
Summary of the method: (§1)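 Rating scale 0–100 (100 = complete control), visual, ~10 days after application in the greenhouse. Applications: preemergence directed soil spray; postemergence at 1–2 leaves.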

Oilseed Rape = experiment: Test C pre-/postemergence: oilseed rape; conditions: Preemergence, 250 g ai/ha; scale 0 to 100, 0 no effect, 100 complete control
Description: Seeds of plant species selected from blackgrass (Alopecurus myosuroides), bromegrass, downy (downy bromegrass, Bromus tectorum), foxtail, green (green foxtail, Setaria viridis), ryegrass, Italian (Italian ryegrass, Lolium multiflorum), winter wheat (Triticum aestivum), wild oat (Avena fatua), galium (catchweed bedstraw, Galium aparine), bermudagrass (Cynodon dactylon), surinam grass (Brachiaria decumbens), cocklebur (common cocklebur, Xanthium strumarium), corn (Zea mays), large crabgrass (Digitaria sanguinalis), woolly cupgrass (Eriochloa villosa), foxtail, giant (giant foxtail, Setaria faberii), goosegrass (Eleusine indica), johnsongrass (Sorghum halepense), kochia (Kochia scoparia), lambsquarters (Chenopodium album), morningglory (Ipomoea coccinea), nightshade (eastern black nightshade, Solanum ptycanthum), nutsedge, yellow (yellow nutsedge, Cyperus esculentus), pigweed (Amaranthus retroflexus), ragweed (common ragweed, Ambrosia elation), soybean (Glycine max), common (oilseed) sunflower (Helianthus annuus), Russian thistle (Salsola kali) and velvetleaf (Abutilon theophrasti) were planted into a blend of loam soil and sand and treated preemergence with test chemicals formulated in a non-phytotoxic solvent mixture which included a surfactant.
At the same time, plants selected from these crop and weed species and also barley (winter barley, Hordeum vulgare), canarygrass (Phalaris minor), chickweed (common chickweed, Stellaria media) windgrass (Apera spica-venti) and deadnettle (henbit deadnettle, Lamium amplexicaule) were planted in pots containing Redi-Earth® planting medium (Scotts Company, 14111 Scottslawn Road, Marysville, Ohio 43041) comprising spaghnum peat moss, vermiculite, wetting agent and starter nutrients and treated with postemergence applications of test chemicals formulated in the same manner. Plants ranged in height from 2 to 18 cm (1- to 4-leaf stage) for postemergence treatments.
Treated plants and controls were maintained in a greenhouse for 13 to 15 days, after which time all species were compared to controls and visually evaluated. Plant response ratings, summarized in Table C, are based on a scale of 0 to 100 where 0 is no effect and 100 is complete control. A dash (-) response means no test result.

corn (Zea mays) = experiment: Test A pre-/postemergence: corn
Summary of the method: as §1

[3] = test system: nutsedge, yellow (yellow nutsedge, Cyperus esculentus); experiment: Test C pre-/postemergence: nutsedge, yellow
Summary of the method: (§2)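 Visual injury scored 0–100 (100 = complete control) against untreated controls after 13–15 greenhouse days. Surfactant-containing solvent formulations applied either to soil after sowing (loam/sand) or over 1- to 4-leaf plants, 2–18 cm tall.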

[4] = test system: chickweed (common chickweed, Stellaria media); experiment: Test C postemergence: chickweed
Summary of the method: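 Visual ratings of 0 (no effect) to 100 (complete control) were made against controls 13-15 days after a postemergence spray, with plants kept in a greenhouse. Plants were 2-18 cm tall (1- to 4-leaf stage) in Redi-Earth peat/vermiculite medium at treatment.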

[5] = test system: foxtail, giant (giant foxtail, Setaria faberii); experiment: Test A pre-/postemergence: foxtail, giant
Summary of the method: as §1

[6] = test system: wheat (Triticum aestivum); experiment: Test A pre-/postemergence: wheat
Summary of the method: as §1

[7] = test system: winter wheat (Triticum aestivum); experiment: Test C pre-/postemergence: winter wheat
Summary of the method: as §2

[8] = test system: pigweed (Amaranthus retroflexus); experiment: Test C pre-/postemergence: pigweed
Summary of the method: as §2

[9] = Postemergence, 125 g ai/ha, 0 to 100 scale, 0 is no effect, 100 is complete control
[10] = Postemergence, 500 g ai/ha, visual rating on 0 to 100 scale (0 no effect, 100 complete control), approximately ten days
[11] = Preemergence, 125 g ai/ha, 0 to 100 scale where 0 is no effect and 100 is complete control
[12] = Preemergence, 500 g ai/ha, 0 to 100 scale (0 no effect, 100 complete control)
[13] = Postemergence, 31 g ai/ha, scale 0 to 100 (0 no effect, 100 complete control)
[14] = Postemergence, 62 g ai/ha, scale 0 to 100 (0 no effect, 100 complete control)
[15] = Postemergence, 125 g ai/ha, scale 0 to 100, 0 no effect, 100 complete control
[16] = Postemergence, 250 g ai/ha, scale 0 to 100
[17] = Preemergence, 31 g ai/ha, scale of 0 to 100, 0 is no effect, 100 is complete control
[18] = Preemergence, 62 g ai/ha, scale of 0 to 100, 0 is no effect, 100 is complete control
[19] = Preemergence, 125 g ai/ha, scale 0 to 100, 0 no effect, 100 complete control
[20] = Preemergence, 250 g ai/ha, scale 0 to 100, 0 no effect, 100 complete control
[21] = Postemergence, 500 g ai/ha, 0 to 100 scale, 0 is no effect, 100 is complete control

Cc1nn(-c2ccc(F)c(C(F)(F)F)c2)nc1Cc1ccnc(C(F)(F)F)c1 [Compound 156]
Plant response rating, Sedge, Umbrella (0 to 100 scale, 0 is no effect, 100 is complete control) ([1]; 250 g ai/ha): 85 | Plant response rating, Velvetleaf [2, 9]: 100 | Velvetleaf plant response rating [2, 10]: 100 | Plant response rating, Velvetleaf [2, 11]: 30 | Plant response rating, Oilseed Rape (Oilseed Rape): 98 | Plant response rating, Corn (corn (Zea mays); [9]): 40 | Corn plant response rating (corn (Zea mays); [10]): 70 | Plant response rating, Corn (corn (Zea mays); [11]): 40 | Plant response rating, Corn (corn (Zea mays); [12]): 70 | Plant response rating, Nutsedge, Yellow [3, 13]: 5 | Plant response rating, Nutsedge, Yellow [3, 14]: 10 | Plant response rating, Nutsedge, Yellow [3, 15]: 10 | Plant response rating, Nutsedge, Yellow [3, 16]: 10 | Plant response rating, Nutsedge, Yellow [3, 17]: 0 | Plant response rating, Nutsedge, Yellow [3, 18]: 0 | Plant response rating, Nutsedge, Yellow [3, 19]: 0 | Plant response rating, Nutsedge, Yellow [3, 20]: 0 | Plant response rating, Chickweed ([4]; 31 g ai/ha, scale 0 to 100 (0 no effect, 100 complete control)): 95 | Plant response rating, Chickweed ([4]; 62 g ai/ha, scale 0 to 100 (0 no effect, 100 complete control)): 95 | Plant response rating, Chickweed ([4]; 125 g ai/ha, scale 0 to 100, 0 no effect, 100 complete control): 95 | Plant response rating, Chickweed ([4]; 250 g ai/ha, scale 0 to 100): 98 | Plant response rating, Foxtail, Giant [5, 9]: 90 | Foxtail, Giant plant response rating [5, 10]: 100 | Plant response rating, Foxtail, Giant [5, 11]: 100 | Plant response rating, Foxtail, Giant [5, 12]: 100 | Plant response rating, Wheat [6, 9]: 40 | Wheat plant response rating [6, 10]: 60 | Plant response rating, Wheat [6, 11]: 20 | Plant response rating, Wheat [6, 12]: 80 | Plant response rating, Wheat [7, 13]: 5 | Plant response rating, Wheat [7, 14]: 15 | Plant response rating, Wheat [7, 15]: 25 | Plant response rating, Wheat [7, 16]: 30 | Plant response rating, Wheat [7, 18]: 5 | Plant response rating, Wheat [7, 19]: 20 | Plant response rating, Wheat [7, 20]: 35 | Plant response rating, Pigweed [8, 13]: 75 | Plant response rating, Pigweed [8, 14]: 90 | Plant response rating, Pigweed [8, 15]: 95 | Plant response rating, Pigweed [8, 16]: 100 | Plant response rating, Pigweed [8, 17]: 100 | Plant response rating, Pigweed [8, 18]: 100 | Plant response rating, Pigweed [8, 19]: 100 | Plant response rating, Pigweed [8, 20]: 100

CCOCc1nn(-c2ccc(F)cc2)nc1Oc1ccnc(C(F)(F)F)c1 [Compound 163]
Plant response rating, Sedge, Umbrella (0 to 100 scale, 0 is no effect, 100 is complete control) ([1]; 125 g ai/ha): 80 | Plant response rating, Velvetleaf [2, 9]: 40 | Velvetleaf plant response rating [2, 21]: 100 | Plant response rating, Velvetleaf [2, 11]: 0 | Plant response rating, Velvetleaf [2, 12]: 20 | Plant response rating, Oilseed Rape (Oilseed Rape): 95 | Plant response rating, Corn (corn (Zea mays); [9]): 20 | Corn plant response rating (corn (Zea mays); [21]): 30 | Plant response rating, Corn (corn (Zea mays); [11]): 0 | Plant response rating, Corn (corn (Zea mays); [12]): 10 | Plant response rating, Nutsedge, Yellow [3, 17]: 0 | Plant response rating, Nutsedge, Yellow [3, 18]: 0 | Plant response rating, Nutsedge, Yellow [3, 19]: 20 | Plant response rating, Nutsedge, Yellow [3, 20]: 75 | Plant response rating, Foxtail, Giant [5, 9]: 60 | Foxtail, Giant plant response rating [5, 21]: 90 | Plant response rating, Foxtail, Giant [5, 11]: 100 | Plant response rating, Foxtail, Giant [5, 12]: 100 | Plant response rating, Wheat [6, 9]: 20 | Wheat plant response rating [6, 21]: 40 | Plant response rating, Wheat [6, 11]: 0 | Plant response rating, Wheat [6, 12]: 0 | Plant response rating, Wheat [7, 18]: 0 | Plant response rating, Wheat [7, 19]: 0 | Plant response rating, Wheat [7, 20]: 0 | Plant response rating, Pigweed [8, 17]: 95 | Plant response rating, Pigweed [8, 18]: 98 | Plant response rating, Pigweed [8, 19]: 100 | Plant response rating, Pigweed [8, 20]: 100
